# Test results as given in patent US10131652B2, “Pyrimidinyloxy benzene derivatives as herbicides” (E. I. DU PONT DE NEMOURS AND COMPANY, priority 2014, dated 2018).
# Read-outs that look alike come from different tables or passages of the source.
# Experiments:
# Assay in all cases: Test F pre-/postemergence plant response
# Type in all cases: in vivo
# kochia (Kochia scoparia) = settings: Bassia scoparia, scale 0 to 100, read-out: Plant response rating, Kochia; for pest or weed control at 16 g/ha: 16 g ai/ha; for pest or weed control at 31 g/ha: 31 g ai/ha; for pest or weed control at 125 g/ha: 125 g ai/ha
# Summary of the method: (§1)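 Values are visual ratings, where 100 is complete control and 0 is no effect, given after 14 to 21 days of greenhouse growth. Test chemicals in a non-phytotoxic, surfactant-containing solvent were sprayed on soil just after planting or on emerged seedlings at the 1- to 4-leaf stage.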
# [1] = test system: nightshade (eastern black nightshade, Solanum ptycanthum); settings: Solanum, pre-emergence, scale 0 to 100, read-out: Plant response rating, Nightshade
# Summary of the method: as §1
# [2] = test system: palmer pigweed (Amaranthus palmeri); settings: Amaranthus palmeri, scale 0 to 100, read-out: Plant response rating, Pigweed, Palmer
# Summary of the method: as §1
# [3] = test system: ragweed (common ragweed, Ambrosia elatior); settings: Ambrosia artemisiifolia, scale 0 to 100, read-out: Plant response rating, Ragweed
# Summary of the method: as §1
# [4] = test system: velvetleaf (Abutilon theophrasti); settings: Abutilon theophrasti, pre-emergence, scale 0 to 100, read-out: Plant response rating, Velvetleaf
# Summary of the method: as §1
# [5] = test system: waterhemp (common waterhemp, Amaranthus rudis); settings: Amaranthus tuberculatus, scale 0 to 100, read-out: Plant response rating, Waterhemp
# Summary of the method: as §1
# [6] = test system: wild poinsettia (Euphorbia heterophylla); settings: Euphorbia heterophylla, scale 0 to 100, read-out: Plant response rating, Poinsettia, Wild
# Summary of the method: as §1
# [7] = test system: yellow nutsedge (Cyperus esculentus); settings: Cyperus, pre-emergence, scale 0 to 100, read-out: Plant response rating, Nutsedge, Yellow
# Summary of the method: as §1
# [8] = post-emergence, 16 g ai/ha Postemergence
# [9] = post-emergence, 31 g ai/ha Postemergence
# [10] = post-emergence, 62 g ai/ha Postemergence
# [11] = post-emergence, 125 g ai/ha Postemergence
# [12] = pre-emergence, 16 g ai/ha Preemergence
# [13] = pre-emergence, 31 g ai/ha Preemergence
# [14] = pre-emergence, 125 g ai/ha Preemergence
structure (smiles),measurement,setting,value
"Fc1cccc(Oc2ncc(Br)cn2)c1-c1cc(C(F)F)no1 [Compound 145, 5-bromo-2-[2-[3-(difluoromethyl)-5-isoxazolyl]-3-fluorophenoxy]pyrimidine]",pest or weed control at 16 g/ha,"kochia (Kochia scoparia); post-emergence, Postemergence",98%
same,pest or weed control at 31 g/ha,"kochia (Kochia scoparia); post-emergence, Postemergence",100%
same,pest or weed control at 62 g/ha,"kochia (Kochia scoparia); post-emergence, 62 g ai/ha, Postemergence",95%
same,pest or weed control at 125 g/ha,"kochia (Kochia scoparia); post-emergence, Postemergence",100%
same,pest or weed control at 16 g/ha,"kochia (Kochia scoparia); pre-emergence, Preemergence",75%
same,pest or weed control at 31 g/ha,"kochia (Kochia scoparia); pre-emergence, Preemergence",98%
same,pest or weed control at 125 g/ha,"kochia (Kochia scoparia); pre-emergence, Preemergence",100%
same,pest or weed control at 62 g/ha,"kochia (Kochia scoparia); pre-emergence, Preemergence",100%
same,pest or weed control at 16 g/ha,[1]; 16 g ai/ha Preemergence,90%
same,pest or weed control at 31 g/ha,[1]; 31 g ai/ha Preemergence,80%
same,pest or weed control at 125 g/ha,[1]; 125 g ai/ha Preemergence,98%
same,pest or weed control at 62 g/ha,[1]; Preemergence,98%
same,pest or weed control at 16 g/ha,[2]; [8],95%
same,pest or weed control at 31 g/ha,[2]; [9],100%
same,pest or weed control at 62 g/ha,[2]; [10],100%
same,pest or weed control at 125 g/ha,[2]; [11],100%
same,pest or weed control at 16 g/ha,[2]; [12],100%
same,pest or weed control at 31 g/ha,[2]; [13],100%
same,pest or weed control at 125 g/ha,[2]; [14],100%
same,pest or weed control at 62 g/ha,"[2]; pre-emergence, Preemergence",100%
same,pest or weed control at 16 g/ha,[3]; [8],30%
same,pest or weed control at 31 g/ha,[3]; [9],50%
same,pest or weed control at 62 g/ha,[3]; [10],60%
same,pest or weed control at 125 g/ha,[3]; [11],70%
same,pest or weed control at 16 g/ha,[3]; [12],0%
same,pest or weed control at 31 g/ha,[3]; [13],70%
same,pest or weed control at 125 g/ha,[3]; [14],80%
same,pest or weed control at 62 g/ha,"[3]; pre-emergence, Preemergence",65%
same,pest or weed control at 16 g/ha,[4]; 16 g ai/ha Preemergence,35%
same,pest or weed control at 31 g/ha,[4]; 31 g ai/ha Preemergence,98%
same,pest or weed control at 125 g/ha,[4]; 125 g ai/ha Preemergence,100%
same,pest or weed control at 62 g/ha,[4]; Preemergence,100%
same,pest or weed control at 16 g/ha,[5]; [8],95%
same,pest or weed control at 31 g/ha,[5]; [9],98%
same,pest or weed control at 62 g/ha,[5]; [10],100%
same,pest or weed control at 125 g/ha,[5]; [11],100%
same,pest or weed control at 16 g/ha,[5]; [12],100%
same,pest or weed control at 31 g/ha,[5]; [13],100%
same,pest or weed control at 125 g/ha,[5]; [14],100%
same,pest or weed control at 62 g/ha,"[5]; pre-emergence, Preemergence",100%
same,pest or weed control at 16 g/ha,[6]; [8],70%
same,pest or weed control at 31 g/ha,[6]; [9],75%
same,pest or weed control at 62 g/ha,[6]; [10],80%
same,pest or weed control at 125 g/ha,[6]; [11],80%
same,pest or weed control at 16 g/ha,[6]; [12],0%
same,pest or weed control at 31 g/ha,[6]; [13],0%
same,pest or weed control at 125 g/ha,[6]; [14],65%
same,pest or weed control at 62 g/ha,"[6]; pre-emergence, Preemergence",65%
same,pest or weed control at 16 g/ha,[7]; 16 g ai/ha Preemergence,0%
same,pest or weed control at 31 g/ha,[7]; 31 g ai/ha Preemergence,0%
same,pest or weed control at 125 g/ha,[7]; 125 g ai/ha Preemergence,0%
same,pest or weed control at 62 g/ha,[7]; Preemergence,0%
